# In ChEMBL document CHEMBL1201862, “PubChem BioAssay data set” (2004):
#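 These data come from cells grown in 96-well plates and exposed to compound for 48 hours at five concentrations. The concentration for 50% growth inhibition is given as GI50.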 Activity calls are given as the source filed them. Cut-off read from the data, not from the text of the source: active = GI50 up to about 1.1 µM and inactive = higher.
# Key:
# Experiment in all cases: NCI anticancer screen, dose series, 48 h
# [1] = system: SR
# [2] = system: SK-MEL-28
# [3] = system: A498
# [4] = system: SK-MEL-2
# [5] = system: Malme-3M
# [6] = system: HCT-15
# [7] = system: OVCAR-5
# [8] = system: HOP-92
# [9] = system: KM12
# [10] = system: U-251
# [11] = system: HOP-62
# [12] = system: RXF 393
# [13] = system: NCI-H460
# [14] = system: EKVX
# [15] = system: MOLT-4
# [16] = system: OVCAR-8
# [17] = system: SK-OV-3
# [18] = system: SF-539
# [19] = system: OVCAR-4
# [20] = system: HCC 2998
Structure (SMILES),GI50 [1],GI50 [2],GI50 [3],GI50 [4],GI50 [5],GI50 [6] [µM],GI50 [7],GI50 [8],GI50 [9],GI50 [10],GI50 [11],GI50 [12],GI50 [13],GI50 [14],GI50 [15],GI50 [16],GI50 [17],GI50 [18],GI50 [19],GI50 [20]
O=C(O)CSc1ccn(Cc2ccccc2)c1,> 100 µM (inactive),> 100 µM (inactive),> 100 µM (inactive),> 100 µM (inactive),> 100 µM (inactive),> 100,> 100 µM (inactive),> 100 µM (inactive),> 100 µM (inactive),> 100 µM (inactive),> 100 µM (inactive),> 100 µM (inactive),> 100 µM (inactive),> 100 µM (inactive),> 100 µM (inactive),> 100 µM (inactive),> 100 µM (inactive),> 100 µM (inactive),> 100 µM (inactive),
O=C(NNC(=O)c1ccccc1O)c1ccco1,66.7 µM (inactive),> 100 µM (inactive),> 100 µM (inactive),> 100 µM (inactive),> 100 µM (inactive),61.1,> 100 µM (inactive),,> 100 µM (inactive),> 100 µM (inactive),> 100 µM (inactive),> 100 µM (inactive),45.4 µM (inactive),> 100 µM (inactive),> 100 µM (inactive),80.7 µM (inactive),> 100 µM (inactive),> 100 µM (inactive),> 100 µM (inactive),
CCN(CC)c1ccc(C(=C2C=CC(=[N+](CC)CC)C=C2)c2ccccc2)cc1,0.0224 µM (active),0.0537 µM (active),,0.0279 µM (active),0.0304 µM (active),0.0483,0.134 µM (active),0.0338 µM (active),0.0324 µM (active),0.0234 µM (active),0.102 µM (active),0.022 µM (active),0.0231 µM (active),0.108 µM (active),0.0151 µM (active),,0.0304 µM (active),0.0462 µM (active),0.0353 µM (active),0.0351 µM (active)
CC(=O)CCC(=O)C(=[N+]=[N-])S(=O)(=O)c1ccccc1,> 100 µM (inactive),> 100 µM (inactive),,> 100 µM (inactive),> 100 µM (inactive),> 100,> 100 µM (inactive),,> 100 µM (inactive),> 100 µM (inactive),> 100 µM (inactive),> 100 µM (inactive),> 100 µM (inactive),> 100 µM (inactive),> 100 µM (inactive),> 100 µM (inactive),,> 100 µM (inactive),,> 100 µM (inactive)
CC(C)C(Nc1ncnc2nc[nH]c12)C(=O)O (stereo unspecified),> 100 µM (inactive),> 100 µM (inactive),> 100 µM (inactive),> 100 µM (inactive),> 100 µM (inactive),> 100,> 100 µM (inactive),> 100 µM (inactive),> 100 µM (inactive),> 100 µM (inactive),> 100 µM (inactive),> 100 µM (inactive),> 100 µM (inactive),> 100 µM (inactive),,> 100 µM (inactive),> 100 µM (inactive),,> 100 µM (inactive),
CCSC1=N/C(=C\c2ccco2)C(=O)N1,> 100 µM (inactive),> 100 µM (inactive),> 100 µM (inactive),> 100 µM (inactive),> 100 µM (inactive),> 100,> 100 µM (inactive),93.3 µM (inactive),> 100 µM (inactive),> 100 µM (inactive),> 100 µM (inactive),,,> 100 µM (inactive),> 100 µM (inactive),> 100 µM (inactive),> 100 µM (inactive),,,
CCOC(=O)/C(C#N)=C1\N[C@H](C(=O)OCC)CO1,> 100 µM (inactive),> 100 µM (inactive),,30.4 µM (inactive),> 100 µM (inactive),> 100,> 100 µM (inactive),,> 100 µM (inactive),> 100 µM (inactive),> 100 µM (inactive),> 100 µM (inactive),> 100 µM (inactive),> 100 µM (inactive),> 100 µM (inactive),> 100 µM (inactive),,> 100 µM (inactive),> 100 µM (inactive),> 100 µM (inactive)
CCOC(=O)/C(C)=C\[C@@]1(C)O[C@@H](C)[C@@](C)(OC(C)=O)[C@@H]1OC(C)=O,58.3 µM (inactive),> 100 µM (inactive),48 µM (inactive),61.8 µM (inactive),57.3 µM (inactive),17.1,> 100 µM (inactive),25.6 µM (inactive),45.2 µM (inactive),64.1 µM (inactive),70.6 µM (inactive),,43 µM (inactive),36.1 µM (inactive),30 µM (inactive),67.5 µM (inactive),75.7 µM (inactive),> 100 µM (inactive),33.4 µM (inactive),30.2 µM (inactive)
CC(=O)NC(CSC1=C2NC(=O)\C=C/C=C\C=C/C(C)C(O)CC(=O)/C(C)=C\CC(O)/C=C\C(C)C(O)C(C)C=C(C)C(=O)c3c(O)c(C)cc(c3C1=O)C2=O)C(=O)O (stereo unspecified),33.5 µM (inactive),30.3 µM (inactive),> 100 µM (inactive),80.7 µM (inactive),52.1 µM (inactive),> 100,> 100 µM (inactive),> 100 µM (inactive),33.7 µM (inactive),43.2 µM (inactive),74 µM (inactive),,94 µM (inactive),> 100 µM (inactive),28.6 µM (inactive),> 100 µM (inactive),> 100 µM (inactive),> 100 µM (inactive),> 100 µM (inactive),
O=C1CC(c2cccc([N+](=O)[O-])c2)C2(C(=O)NC(=O)NC2=O)C(c2cccc([N+](=O)[O-])c2)C1 (stereo unspecified),55.6 µM (inactive),> 100 µM (inactive),> 100 µM (inactive),> 100 µM (inactive),0.783 µM (active),70.5,> 100 µM (inactive),36.5 µM (inactive),27.5 µM (inactive),> 100 µM (inactive),> 100 µM (inactive),13.6 µM (inactive),> 100 µM (inactive),,> 100 µM (inactive),> 100 µM (inactive),> 100 µM (inactive),> 100 µM (inactive),> 100 µM (inactive),
N=C(N)NS(=O)(=O)c1ccc(NC(=O)c2ccc3nc4ccccc4c(O)c3c2)cc1,> 100 µM (inactive),> 100 µM (inactive),,> 100 µM (inactive),> 100 µM (inactive),> 100,> 100 µM (inactive),> 100 µM (inactive),> 100 µM (inactive),> 100 µM (inactive),> 100 µM (inactive),> 100 µM (inactive),> 100 µM (inactive),> 100 µM (inactive),> 100 µM (inactive),> 100 µM (inactive),> 100 µM (inactive),> 100 µM (inactive),> 100 µM (inactive),> 100 µM (inactive)
COc1cccc(C2SCC(=O)N2c2ccc(-c3ccc(-n4c(-c5ccccc5)nc5ccccc5c4=O)cc3)cc2)c1OC (stereo unspecified),60.1 µM (inactive),> 100 µM (inactive),> 100 µM (inactive),> 100 µM (inactive),> 100 µM (inactive),52.7,> 100 µM (inactive),55.8 µM (inactive),50.4 µM (inactive),34.6 µM (inactive),> 100 µM (inactive),,> 100 µM (inactive),> 100 µM (inactive),60.8 µM (inactive),> 100 µM (inactive),> 10 µM (inactive),32.6 µM (inactive),77.6 µM (inactive),> 100 µM (inactive)
COc1ccc(/C=C2\SC(c3ccc(OC)cc3)N(NC(=O)Cc3ccccc3)C2=O)cc1 (stereo unspecified),> 100 µM (inactive),> 100 µM (inactive),> 100 µM (inactive),> 100 µM (inactive),> 100 µM (inactive),> 100,> 100 µM (inactive),> 100 µM (inactive),> 100 µM (inactive),> 100 µM (inactive),> 100 µM (inactive),63.7 µM (inactive),> 100 µM (inactive),,79.3 µM (inactive),> 100 µM (inactive),> 100 µM (inactive),> 100 µM (inactive),> 100 µM (inactive),
COc1ccc(/C=N/N=C(\N)NO)cc1F,15.9 µM (inactive),> 100 µM (inactive),,13.3 µM (inactive),31 µM (inactive),18.6,13.9 µM (inactive),22.2 µM (inactive),29.4 µM (inactive),25 µM (inactive),20.5 µM (inactive),38.2 µM (inactive),11.9 µM (inactive),8.13 µM (inactive),31.1 µM (inactive),25.9 µM (inactive),24.5 µM (inactive),21.9 µM (inactive),7.45 µM (inactive),11.4 µM (inactive)
CN(Cc1cnc2nc(N)nc(N)c2n1)c1ccc(C(=O)NC(CCS(=O)(=O)O)C(=O)O)cc1 (stereo unspecified),0.136 µM (active),> 100 µM (inactive),> 100 µM (inactive),> 100 µM (inactive),,0.25,0.144 µM (active),> 100 µM (inactive),0.661 µM (active),,0.783 µM (active),,0.409 µM (active),1.31 µM (inactive),0.593 µM (active),21.9 µM (inactive),> 100 µM (inactive),0.824 µM (active),> 100 µM (inactive),0.916 µM (active)
NC(=O)C1CCCN1C(=O)N(CCCl)N=O (stereo unspecified),> 100 µM (inactive),> 100 µM (inactive),> 100 µM (inactive),> 100 µM (inactive),> 100 µM (inactive),> 100,54.5 µM (inactive),> 100 µM (inactive),> 100 µM (inactive),> 100 µM (inactive),> 100 µM (inactive),,> 100 µM (inactive),> 100 µM (inactive),> 100 µM (inactive),> 100 µM (inactive),> 100 µM (inactive),> 100 µM (inactive),> 100 µM (inactive),> 100 µM (inactive)
